# Laboratory results reported in patent US8252832B2, “Kinesin inhibitors as cancer therapeutics” (Novartis AG, priority 2007, dated 2012).
# Where two headings read alike, the source gives them in different places.
# How the values were obtained:
# [1] = tested on: primary blast cells from AML patients; experiment: Colony formation assay in methylcellulose containing medium, AML blasts; assay type: cell-based, human
# Procedure: Primary blast cells from AML patients were tested for sensitivity to compound IIa as shown below. Frozen AML blasts from peripheral blood were obtained from AllCell LLC. (Emeryville, Calif.). Three frozen vials containing ˜1×10^7 PBMCs were purchased. Peripheral blood mononuclear cells (PBMCs) from three newly diagnosed AML patients with a high percentage of blasts (#06-188, 80%; #06-366, 88%; #06-503, 73%) were cultured for several weeks and treated with the KSP inhibitors. The vials were rapidly thawed and the cells were cultured in Iscove's DMEM supplemented with 10% FBS and the following cytokines all at 10 ng/ml: GM-CSF, G-CSF, SCF, IL-3, and IL-6 (all from R&D Systems). Three assays were performed on the cells as follows: • CellTiter-Glo® assay on AML blasts. PBMCs containing AML blasts were seeded in 96-well plates (5000/well) and treated with various concentrations of the compound IIa (10 pM to 10 nM) for 48 hours before cells survival was measured as described above. GI50 values (nM) were calculated as for cell lines. • Cell cycle analysis using propidium iodide staining. […] The DNA content of the fixed and stained cells was analyzed by the BD FACSCalibur flow cytometer using the CellQuest software. • Colony formation assay in methylcellulose containing medium. […] Colonies were counted under a microscope after 2 weeks. […]
# [2] = tested on: cell lines derived from hematological malignancies; experiment: CellTiter-Glo, hematologic malignancy panel, mean of panel; assay type: cell-based
# Excerpt: Identification of tumor types that are the most sensitive to the KSP inhibitors of the present invention can be accomplished using an unbiased approach that uses several cell-based assays. The assays chosen were as follows: • CellTiter-Glo®. This is an assay designed to measure ATP concentration in a cell culture, and can be correlated to cell number. Briefly CellTiter-Glo® (Promega Corporation) is a homogeneous method using the single CellTiter-Glo® reagent to detect ATP wherein ATP in the assay drives the activity of a thermostable luciferase to create a luminescent signal which can then be measured and correlated with the number of viable cells. Briefly, for adherent cells, 1,000 to 5,000 cells/well were plated in 96-well plates (100 μl/well) and let to adhere for 24 hours before being treated with drug. For non-adherent cells, 1,000 to 10,000 cells/well were plated in 96-well plates (100 μl/well) and immediately treated with drug. Drug dilutions were prepared in DMSO at 1000 times the final concentration. These dilutions were then diluted 1/100 in growth media before being added to the cells (11 μl/well) to achieve the desired final concentration. […] The enzymatic reaction is coupled to a chemical reaction that uses a tetrazolium salt to form a formazan that is red and can be detected by its absorbance at 490 nm. […]
smiles,measurement,setting,value
CC(C)(C)[C@H](c1nc(-c2cc(F)ccc2F)cn1Cc1ccccc1)N(CC[C@H](N)CF)C(=O)CO [Compound IIa],colonies,"[1]; 0.5 nM and above, samples #06-366, #06-188, #06-503, 2 weeks",absent
same,number of colonies,"[1]; sample #06-366, 0.2 nM, 2 weeks",markedly reduced
same,GI50,"[2]; GI50 in nM, read-out: Log(GI50), arithmetic mean of panel (converted)",0.339 nM
same,GI50,"[2]; read-out: GI50, geometric mean of panel",0.34 nM
